Measurements taken from PMC6694116, “A CRISPR-Cas12a-derived biosensing platform for the highly sensitive detection of diverse small molecules” (Nature Communications, 2019).

Columns and labels:
HosA = HosA (Escherichia coli, UniProt P69782); assay: EMSA, dissociation of operator dsDNA; assay type: binding; conditions: pH 7.5, room temperature; allosteric effector
CBD-HosA = CBD-HosA (Escherichia coli, UniProt P69782); assay: EMSA, dissociation of operator dsDNA; assay type: binding; conditions: 1.8 mM p-HBA in the specificity test; pH 7.5, room temperature; allosteric effector; also Cas12a read-out with immobilised protein
CBD-HucR [1] = target: T1, CBD-HucR (Deinococcus radiodurans, UniProt Q9RV71); assay: EMSA, dissociation of operator dsDNA; assay type: binding; conditions: 0.05-500 uM uric acid; pH 7.5, room temperature; allosteric effector; also Cas12a read-out with immobilised protein
T1 construct: gene DR_1159
T1 sequence (Q9RV71 1-181): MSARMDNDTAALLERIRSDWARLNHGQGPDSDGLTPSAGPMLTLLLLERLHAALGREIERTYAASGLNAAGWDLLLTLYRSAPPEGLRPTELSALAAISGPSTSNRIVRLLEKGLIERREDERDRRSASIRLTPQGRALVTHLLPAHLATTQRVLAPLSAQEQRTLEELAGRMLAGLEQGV

CBD-TetR [2] = target: CBD-TetR (Escherichia coli, UniProt P04483); conditions: pH 7.5, room temperature; allosteric effector
CBD-HucR [3] = target: T2, CBD-HucR (UniProt Q9RV71 1-181); assay: EMSA; 25-200 nM protein, 40 nM DNA; EMSA: 10 mM Tris-HCl pH 7.5, 100 mM KCl, 1 mM EDTA, 0.1 mM DTT, 5% glycerol, 0.01 mg/mL BSA, room temperature 30 min; 1.5% agarose gel in Tris-borate-EDTA at 4; conditions: protein: recombinant; tags: CBD fused via (SGGGG)4 linker; His tag; chain copies: 2; blunt
T2 sequence: T1 sequence (Q9RV71 1-181)

CBD-TetR [4] = target: CBD-TetR (UniProt P04483 1-207); assay: as above; conditions: protein: recombinant; tags: CBD fused via (SGGGG)4 linker; His tag; chain copies: 2; blunt
Chain of CBD-TetR (UniProt P04483 1-207) (P04483 whole entry, the tested form may be a part): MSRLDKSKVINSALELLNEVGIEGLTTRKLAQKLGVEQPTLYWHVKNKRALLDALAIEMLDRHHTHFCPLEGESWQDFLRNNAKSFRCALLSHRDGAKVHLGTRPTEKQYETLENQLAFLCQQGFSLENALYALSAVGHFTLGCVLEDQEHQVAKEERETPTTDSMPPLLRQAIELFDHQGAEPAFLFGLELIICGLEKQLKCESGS

Chain of CBD-HosA (P69782 whole entry): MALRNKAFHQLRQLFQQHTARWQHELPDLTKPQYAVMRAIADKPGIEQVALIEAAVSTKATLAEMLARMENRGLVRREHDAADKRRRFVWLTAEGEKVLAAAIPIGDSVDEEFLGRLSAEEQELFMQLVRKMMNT
Chain of HosA (P69782 whole entry): as above
Chain of CBD-TetR (Escherichia coli, UniProt P04483) (P04483 whole entry, the tested form may be a part): as the sequence (P04483 whole entry, the tested form may be a part) above

Molecule: O=C(O)c1ccc(O)cc1 [p-HBA, p-hydroxybenzoic acid]
- EMSA, dissociation of operator dsDNA (HosA): there were no significant differences between HosA and CBD-HosA on gel-shift images
- EMSA, dissociation of operator dsDNA (CBD-HosA): p-HBA induced the almost complete dissociation of dsDNA from the CBD–HosA–dsDNA complex

Molecule: O=c1[nH]c(=O)c2[nH]c(=O)[nH]c2[nH]1 [uric acid]
- EMSA, dissociation of operator dsDNA (CBD-HucR [1]): increasing amounts of dsDNA dissociated from the CBD–HucR–dsDNA complex

Molecule: CN(C)[C@@H]1C(=O)C(C(N)=O)=C(O)[C@@]2(O)C(=O)C3=C(O)c4c(O)cccc4[C@@](C)(O)[C@H]3C[C@@H]12 [tetracycline]
- EMSA, dissociation of operator dsDNA (CBD-TetR [2]): Both CBD-TetR and CBD-HosA show perfect dsDNA-binding and effector-induced allosteric activities

B1: dsDNA(HucR) (dsDNA)
DNA 1: TACTGAGCCATGTATCCAGGTCATTGTACTTAGATGTCTACCTAAGCTCTGACAGTTCCA
DNA 2: TGGAACTGTCAGAGCTTAGGTAGACATCTAAGTACAATGACCTGGATACATGGCTCAGTA
- binding result (CBD-HucR [3]): binds

B2: dsDNA(TetR) (dsDNA)
DNA 1: TGAGCCATGTATCCAGGTCATTTGTCCCTATCAGTGATAGAGAAGCTCTGACAGTTCCA
DNA 2: TGGAACTGTCAGAGCTTCTCTATCACTGATAGGGACAAATGACCTGGATACATGGCTCA
- binding result (CBD-TetR [4]): binds
